Results on eight compounds are retold here after patent US20260284066A1, “TYK2 INHIBITORS AND COMPOSITIONS AND METHODS THEREOF” (LYNK PHARMACEUTICALS CO. LTD., priority 2023, published 2026).

Data set [1] is described as follows: Microsomal metabolic stability assay. Conditions: for microsomal CLint at 1 µM / half-life at 1 µM: human, liver microsomes, pH 7.4, human liver microsomes 0.5 mg/mL; for microsomal CLint at 1 µM: read-out: Human LM Clint; for half-life at 1 µM: read-out: Human LM T½. The class given is in vitro ADME, human. How it is done:
Microsomal Metabolic Stability Assay
Microsomes were pre-incubated with test compound or control compounds for 5 min at 37° C. in 100 mM potassium phosphate buffer, pH 7.4, 1.0 mM EDTA. The reaction was initiated by addition of 15 μL of the NADPH regenerating system to 30 μL of each incubation mixture per time point. The final incubation condition was composed of 0.5 mg/mL microsomal protein, 1 μM test article/positive control, 2 mM NADPH. The 0-minute samples were prepared by addition of a 30 μL aliquot of each incubation mixture to 135 μL quench reagent to precipitate proteins. And then a 15 μL aliquot of the NADPH regenerating system was added. At 5, 15, 30 and 45 minutes, the reaction will be stopped by the addition of cold acetonitrile solution containing internal standard. The samples taken at all time points were centrifuged at 5000×g for 15 minutes. 50 μL of supernatant are taken into 96-well assay plates pre-added with 50 μL ultrapure water, and then analyzed by LC/MS/MS.
Concentrations of test articles, control compounds in the samples were determined by using LC/MS/MS method. Plotting of the chromatograms and peak area integrations are carried out by Analyst (AB Sciex).
In the determination of the in vitro elimination constant (ke) of the control compounds, the analyte/internal standard peak area ratios will be converted to percentage remaining (% Remaining) with the following equation:
The CLint of microsomes was calculated using the formula: CLint (mic)=0.693/T1/2/mg microsome protein per mL. The slope was measured by the natural logarithm of the percentage of the residual compound and time, T1/2 was calculated according to the following formula.
For orientation: Microsomes from liver hold many membrane-bound enzymes, among them those of drug oxidation.

In another data set the test system is pSTAT1. The data set is described as follows: Phosphorylation inhibition of STAT in human whole blood (IFN-alpha stimulated, flow cytometry). In kind it is cell-based. As to conditions: T-cell, CD3+ T cells, read-out: pSTAT1 inhibition in hWB (IC50). How it is done:
Phosphorylation Inhibition of STAT in Human Whole Blood Testing: The inhibitory potential of test articles in human whole blood assay was evaluated by the method of flow cytometry. IFN-alpha will activate JAK1 and TYK2 kinase in T cells by binding to IFN receptors, and then lead to phosphorylation of STAT1 and STAT2. The phosphorylated STAT1 enter nuclear and promote transcription and expression of IFN-gamma. To evaluate the efficacy of TYK2i in T cells, freshly collected human whole blood will be stimulated with certain unit of human IFN-alpha (Universal Type I IFN (1MU), R&D, 11200-2) for 20 mins in incubator. After stimulation, fix cells with PhosflowTM Fix Buffer I (BD, 557870), and then collect fixed cells by centrifugation (500 g, 8 min). Wash cells once with pre-cooled PBS, and then permeabilize cells with cold Perm Buffer III buffer (BD, 558050) for 45 mins on ice. Collect cells by centrifugation (600 g, 8 min) and washed twice with cold PBS. Stain cells with anti-human CD3(FITC Mouse Anti-Human CD3, BD, 555332) and anti-pSTAT1_Y701 (Alexa Fluor 647 Mouse Anti-Stat1 ([…]), BD, 612597) antibodies. Detect pSTAT1 by flow cytometry (CytoFlex S) and analyze data with FlowJo and GraphPad Prism 8 software. IC50 values of test articles were determined using 4-parameter logistic equation.
(In flow cytometry, cells or beads pass a laser one at a time.)

The next data set addresses T1, TYK2-JH2 domain (Homo sapiens, UniProt P29597).
T1 construct: JAK1-JH2 domain or TYK2-JH2 domain enzyme
The data set is described as follows: Binding activity test for TYK2 JH2 domain (Tb-antibody/tracer FRET). As to conditions: for JAK1/TYK2 selectivity: ratio of JAK1 JH2 to TYK2 JH2 binding IC50; for pIC50: read-out: TYK2 JH2 Binding IC50.

The nature of the next data set: Kinetic solubility. The class given is physicochemical. As to conditions: aqueous buffer, 100 mM pH 7.4 phosphate buffer, 1% DMSO, room temperature, read-out: Kinetics Solubility_PBS7.4. Here is the method: Aliquots of 8 μL of reference and test compound stock solutions (10 mM/5 mM) are added into 792 μL of 100 mM pH 7.4 phosphate buffer. The final DMSO concentration is 1%. Sample tubes are shaken for 2 hours at 1000 rpm at room temperature. Samples are centrifuged at 12000 rpm for 10 min to precipitate un-dissolved particles. And transfer the supernatants to a new tube or plate. Add 5 μL of samples (no diluted, 10 times diluted and 100 times diluted) and standard curve samples to 95 μL of ACN containing IS for LC-MS/MS analysis.

The target of another data set is T2, JAK1-JH2 domain (Homo sapiens, UniProt P23458).
T2 construct: JAK1-JH2 domain or TYK2-JH2 domain enzyme
T2 sequence (P23458 583-855 limits assumed): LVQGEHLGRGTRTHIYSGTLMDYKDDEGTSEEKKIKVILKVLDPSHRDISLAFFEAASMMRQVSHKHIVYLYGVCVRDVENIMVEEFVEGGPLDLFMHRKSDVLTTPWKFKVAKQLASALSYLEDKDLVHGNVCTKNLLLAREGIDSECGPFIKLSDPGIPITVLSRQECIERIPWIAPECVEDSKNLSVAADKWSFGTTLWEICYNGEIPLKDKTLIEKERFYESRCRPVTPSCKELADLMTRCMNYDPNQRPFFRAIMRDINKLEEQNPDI
Put plainly: Binding activity test for JAK1 JH2 domain (Tb-antibody/tracer FRET). Conditions: read-out: JAK1 JH2 Binding IC50. How it is done:
Binding Activity test for JH2 domain of JAK and TYK2
75 nL DMSO for high control and low control.
For low control, add 5 μL/well assay buffer. […] After enzyme system prepared, add 5 μL of Tb-antibody solution into each wells of assay plate. […] After Tb-antibody added, also add 5 μL of tracer into the assay plate. […] Incubate for 60 mins at 25° C. firstly and then continue to incubate the plate at 4° C. overnight. Read by envision in FRET mode. The Luminescence value was recorded by a multi-label reader Envision (PerkinElmer). Inhibition Rate was calculated relative to vehicle (DMSO) treated control wells using following formula:
wherein • RLU_compound=the relative light unit of cells treated with test compounds • RLU_low control=the relative light unit of medium with DMSO only • RLU_high control=the relative light unit of cells treated with DMSO only

Data set [2] has as its system Ba/F3-FL-TYK2-P760L cells. Put plainly: Anti-proliferative assay in Ba/F3-FL-TYK2-P760L cells (Cell-Titer Glo). The class given is cell-based.
Method: These engineered Ba/F3-FL-TYK2-P760L cells were used to monitor JAK inhibitory activities of the compounds in the cellular. […] Cells were seeded at 2000/well of white flat bottom 96-well plates. The well containing medium only was used as background control. […] The test compounds were dissolved in DMSO to a stock concentration of 20 mM. […] The final DMSO concentration was 0.1%. […] The viability was measured by cellular ATP determination using the Cell-Titer Glo luciferase reagent (Promega). The Luminescence value was recorded by a multi-label reader Envision (PerkinElmer). Inhibition Rate was calculated relative to vehicle (DMSO) treated control wells using following formula:
wherein • RLU_compound=the relative light unit of cells treated with test compounds • RLU_blank=the relative light unit of medium with DMSO only • RLU_control=the relative light unit of cells treated with DMSO only
Another data set has as its system TYK2 pathway. The data set is described as follows: IFN-γ release in NK92 cells stimulated by IL-12 (ELISA). In kind it is cell-based. Conditions: Homo sapiens, IL-12 2.5 ng/mL. Background: ELISA stands for enzyme-linked immunosorbent assay.
Where [3] appears, read: human liver microsomes 0.5 mg/mL, 1 μM.

SMILES strings stand for the structures. pIC50: −log10 of the molar value. Converted amounts (≈) assume the structure as drawn.

T1 sequence (P29597 589-875 limits assumed): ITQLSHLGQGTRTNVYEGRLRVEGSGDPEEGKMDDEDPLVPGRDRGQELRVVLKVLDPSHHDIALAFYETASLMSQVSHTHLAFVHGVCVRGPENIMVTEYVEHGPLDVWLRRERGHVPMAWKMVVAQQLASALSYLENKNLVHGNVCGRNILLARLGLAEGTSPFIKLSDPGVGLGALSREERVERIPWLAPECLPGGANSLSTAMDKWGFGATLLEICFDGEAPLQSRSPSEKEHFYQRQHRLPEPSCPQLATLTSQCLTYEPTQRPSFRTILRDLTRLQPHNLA
From the text for TYK2 pathway: IFN-γ Release in NK92 Cells Stimulated by IL-12
Purpose: To evaluate the inhibition activity of TYK2 inhibitors in NK92 cells on TYK2 pathway through ELISA method.

For `[2H]C([2H])([2H])NC(=O)c1cnc(NC(=O)[C@@H]2C[C@@H]2F)cc1Nc1ncc2cnn(CC(F)(F)F)c2c1OC` [Example 9, 6-((1S,2S)-2-fluorocyclopropane-1-carboxamido)-4-((7-methoxy-1-(2,2,2-trifluoroethyl)-1H-pyrazolo[4,3-c]pyridin-6-yl)amino)-N-(methyl-d3)nicotinamide], in data set [1], the microsomal CLint at 1 µM was 5.42 µL/min/mg and the half-life at 1 µM amounted to 256 min. For the same compound, the pIC50 with pSTAT1 is 6.56. For the same compound, at TYK2-JH2 domain, the JAK1/TYK2 selectivity was found to be 166.08 and the pIC50 is 9.67. In addition, in “Kinetic solubility”, the solubility kinetic at 2 h was found to be 38.2 µM (≈ 18.5 µg/mL). In addition, the pIC50 on JAK1-JH2 domain was 7.45.
Take `[2H]C([2H])([2H])NC(=O)c1cnc(NC(=O)C2CC2)cc1Nc1ncc2cnn(C(C)C(F)(F)F)c2c1OC` (stereo not shown) [Example 3, 6-(Cyclopropanecarboxamido)-4-((7-methoxy-1-(1,1,1-trifluoropropan-2-yl)-1H-pyrazolo[4,3-c]pyridin-6-yl)amino)-N-(methyl-d3)nicotinamide]: in data set [1], the microsomal CLint at 1 µM is 5.8 µL/min/mg and the half-life at 1 µM is 239 min. This compound also showed a pIC50 in data set [2] of 6.78. Moreover, on TYK2-JH2 domain, the JAK1/TYK2 selectivity came out at 177.55 and the pIC50 was 9.17. Moreover, the pIC50 at JAK1-JH2 domain was 6.92.
`[2H]C([2H])([2H])NC(=O)c1cnc(NC(=O)C2CC2)cc1Nc1ncn2ncc(C(C)C(F)(F)F)c2c1OC` (stereo not shown) [Example 5, 6-(Cyclopropanecarboxamido)-4-((4-methoxy-3-(1,1,1-trifluoropropan-2-yl)pyrazolo[1,5-c]pyrimidin-5-yl)amino)-N-(methyl-d3)nicotinamide]: in data set [1] (setting [3]), the “Human LM Clint” value was determined as 50.06 µL/min/mg. The half-life at 1 µM in data set [1] is 27.7 min. The pIC50 in data set [2] is 7.28; on TYK2-JH2 domain, 9.57; on JAK1-JH2 domain, 6.80. The JAK1/TYK2 selectivity on TYK2-JH2 domain stood at 590.59.
Turning to `[2H]C([2H])([2H])NC(=O)c1cnc(NC(=O)C2CC2)cc1Nc1ncn2ncc(C(C)C(F)(F)F)c2c1OC` (single isomer, unassigned) [Example 5A, (R*)-6-(Cyclopropanecarboxamido)-4((4-methoxy-3-(1,1,1-trifluoropropan-2-yl)pyrazolo[1,5-c]pyrimidin-5-yl)amino)-N-(methyl-d3)nicotinamide], in data set [1], the microsomal CLint at 1 µM was 57.5 µL/min/mg and the half-life at 1 µM came to 24.1 min. Also, in data set [2], the pIC50 was under 5.30. At TYK2-JH2 domain, the JAK1/TYK2 selectivity is reported as over 197.55 and the pIC50 was 8.82. Further, the pIC50 on JAK1-JH2 domain was under 6.53.
As to `CNC(=O)c1cnc(NC(=O)C2CC2)cc1Nc1ncn2ncc(C#N)c2c1OC` [Example 20, 4-((3-Cyano-4-methoxypyrazolo[1,5-c]pyrimidin-5-yl)amino)-6-(cyclopropanecarboxamido)-N-methylnicotinamide], in data set [1], the microsomal CLint at 1 µM was 39.2 µL/min/mg. Also, the half-life at 1 µM in data set [1] worked out at 35.4 min. In addition, the pIC50 with pSTAT1 was 6.78; at TYK2-JH2 domain it was 9.52; on JAK1-JH2 domain it was 7.71. Besides, the JAK1/TYK2 selectivity on TYK2-JH2 domain was found to be 63.62.
With `[2H]C([2H])([2H])NC(=O)c1cnc(NC(=O)C2CC2)cc1Nc1ncn2ncc(C(C)C(F)(F)F)c2c1OC` (single isomer, unassigned) [Example 5B, (S*)-6-(Cyclopropanecarboxamido)-4-((4-methoxy-3-(1,1,1-trifluoropropan-2-yl)pyrazolo[1,5-c]pyrimidin-5-yl)amino)-N-(methyl-d3)nicotinamide], the “Human LM Clint” value in data set [1] (setting [3]) came to 47.61 µL/min/mg. The “Human LM T½” value in data set [1] (setting [3]) was 29.11 min. Besides, the results for the pIC50 (in data set [2]; on TYK2-JH2 domain; at JAK1-JH2 domain) were 7.21, 9.71 and 6.85, respectively. Also, the JAK1/TYK2 selectivity on TYK2-JH2 domain was 716.05.
In the case of `[2H]C([2H])([2H])NC(=O)c1cnc(NC(=O)C2CC2)cc1Nc1ccc2ccn(CC(C)(F)F)c2c1OC` [Example 17, 6-(Cyclopropanecarboxamido)-4-((1-(2,2-difluoropropyl)-7-methoxy-1H-indol-6-yl)amino)-N-(methyl-d3)nicotinamide], the JAK1/TYK2 selectivity on TYK2-JH2 domain was found to be 121.60. Moreover, the pIC50 on TYK2-JH2 domain was 9.47; in the data set on TYK2 pathway it was 7.66; on JAK1-JH2 domain, 7.38. The solubility kinetic at 2 h in “Kinetic solubility” was 11.1 µM (≈ 5.12 µg/mL).
For `[2H]C([2H])([2H])NC(=O)c1cnc(NC(=O)C2CC2)cc1Nc1ccn2ncc(Br)c2c1OC` [Example 29, 4-((3-Bromo-4-methoxypyrazolo[1,5-a]pyridin-5-yl)amino)-6-(cyclopropanecarboxamido)-N-(methyl-d3)nicotinamide], the JAK1/TYK2 selectivity at TYK2-JH2 domain was 42.0. The pIC50 on TYK2-JH2 domain is 9.73; with TYK2 pathway, 7.49; on JAK1-JH2 domain, 8.10.

By pIC50 is commonly meant the negative decadic logarithm of the IC50, by convention in mol/L.
